Experimental data reported in US11680086B2, “Lipopeptide for potently inhibiting HIV, derivative thereof, pharmaceutical composition thereof and use thereof” (Institute of Pathogen Biology, Chinese Academy of Medical …, priority 2017, dated 2023).
Peptide text beside a SMILES is read from it. * marks the point of attachment. X1 = Cc1c(C)c2c(c(C)c1OC(=O)CCC(=O)*)CCC(C)(CCCC(C)CCCC(C)CCCC(C)C)O2; Stearoyl = CCCCCCCCCCCCCCCCCC(=O)*; Palmitoyl = CCCCCCCCCCCCCCCC(=O)*

Columns and labels:
[1] = biological target: N39 (NHR-derived polypeptide of gp41) (Human immunodeficiency virus type 1 group M subtype B, UniProt P04578); type: binding, HIV-1; settings: 10 μM each, PBS pH 7.2
N39 (NHR-derived polypeptide of gp41), sequence (P04578 528-566): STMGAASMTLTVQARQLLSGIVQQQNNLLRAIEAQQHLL
Method: (§1) The circular dichroism spectrophotometer was Jasco-815 by JASCO Inc., and the assay method was referred to the papers published by the inventors (see the References 18 and 30 listed in the Background Art). […] The N39 and an inhibitor were separately dissolved in a phosphate buffered saline (PBS) to prepare a PBS solution (pH 7.2) of a concentration of 20 μM. The N39 was mixed with an inhibitor at a volume ratio of 1:1 (final concentration of 10 μM for each), the mixed sample was placed at 37° C. for 30 minutes to fully react, and then the helix content and Tm value of the resultant complex were measured by the circular dichroism spectrophotometer. The scan wavelength range of the device was 195-260 nm with a wavelength interval of 1 nm, and the values measured by scanning for three times were averaged. Based on the CD signals, the interaction between the polypeptides and the helix content were determined. Then, the sample for CD signal measurement was transferred to the temperature scanning sample cell, the program of the CD device was set to temperature scanning with a detection wavelength of 220 nm and scanning range of 20-98° C., and the program scan was performed to obtain the curve of the CD signals vs temperature, based on which the Tm value was calculated. Based on the Tm value, the stability of the formed helical structure of the inhibitor and N39 was judged.

[2] = system: NL4-3 pseudovirus carrying T-20 resistance mutation site of NHR; test: inhibition of T-20 resistant strains; type: cell-based, HIV-1; settings: strains with single or double mutations
[3] = system: 35 HIV-1 pseudoviruses (subtypes A, B, B', C, G, A/C, A/E, B/C); settings: for IC50: read-out: average IC50 for inhibition of various types of HIV-1 pseudoviruses, average over 35 pseudoviruses; for inhibitory activity against different subtypes of HIV-1 as folds of T-20: relative to T-20, from average IC50
Excerpt: HIV-1 pseudovirus-mediated cell entry inhibition assay: basic steps included: (1) Preparation of HIV-1 pseudovirus: the 293T cells were co-transfected with a plasmid expressing the envelope protein (Env) of HIV-1 strain NL4-3 (i.e., a recombinant expression plasmid obtained by inserting the gene encoding the envelope protein (ENV) of the D36G mutant of the HIV-1 strain NL4-3 in the Table 2 of the Reference 14 listed in the Background Art into the vector pcDNA3.1(−)) and the HIV-1 backbone plasmid pSG3Δenv (provided by the AIDS Reagent Program of National Institutes of Health (NIH), catalog number: 11051) by using a cell transfection reagent, incubated in a cell incubator of 37° C. and 5% CO2 for 6 hours, and then the medium was changed, and the cells were further incubated for 48 hours. The cell culture supernatant containing pseudovirus particles was pipetted and filtered with a 0.45 μm filter to collect the supernatant, then 20% fetal bovine serum (FBS) was added thereto, the final solution was transferred to a polypropylene tube, and stored at −80° C. for ready for use or directly subjected to virus titration. (2) Titration of HIV-1 pseudovirus: the viruses were diluted by 5 folds in a 96-well plate, and 4 replicate wells with 8 gradients were set to a final volume of 100 microliters. The TZM-b1 cells were trypsinized and counted, and the cells were diluted to 1×10^5 cells/ml with DMEM complete medium; 100 μl of cells dilution (containing 15 μg/ml DEAE-dextran) per well were added and cultured at 37° C. and 5% CO2 for 48 hours. The 96-well plate was then taken from the cell culture incubator. The supernatant was discarded from the wells. To each well, 30 μl of a cell lysate was added, and after 10 minutes, 100 μl of a luciferase detection reagent was added. 100 μl of liquid was pipetted from each well and added to a corresponding 96-well white plate, and the luminescence values were read by a microplate photometer. The virus titer was calculated by the Reed-Muench method. (3) Antiviral activity assay: the test substance was dissolved in DMSO and diluted with a cell culture solution by 3 folds, and placed in a 96-well plate at a final volume of […]. 50 μl of a DMEM medium was used in place of the test substance as a negative control. To each well, 100 μl of TZM-b1 target cells solution (containing 15 μg/ml DEAE-dextran) at a concentration of 1×10^5 cells/ml was added, and then 50 μl (corresponding to 100 TCID50 per well) of the HIV-1 pseudovirus obtained above was added. After incubation at 37° C. and 5% CO2 for 48 hours, the relative light units (RLU) of each well were determined by using a luciferase detection reagent (Promega). Inhibition rate (%) and IC50 value were calculated.
Among them, the A, B and C subtypes were the main viruses causing AIDS epidemic in the world, while B/C and A/E recombinant viruses were the main viruses in China. […] Among the Env expression plasmids used for the preparation of pseudoviral, except that the Env expression plasmids used for preparation of PVO, Du156 and CAP 210.2.00.E8 were obtained from the AIDS Reagent Program of NIH in the United states, other plasmids were preserved by the laboratory of Prof. He Yuxian, Institute of Pathogen Biology, Chinese Academy of Medical Sciences, please see the References 13, 14 and 18 listed in the Background Art and articles of Chong et al. (Chong H, Yao X, Zhang C, Cai L, Cui S, Wang Y, He Y. Biophysical property and broad anti-HIV activity of Albuvirtide, a 3-maleimimidoproprotionic acid-modified peptide fusion inhibitor. PLoS One, 2012; 7 (3): e 32599). The preparation of the pseudovirus and the antiviral assay were the same as those in Example 2.1 of Example 2 (HIV-1 pseudovirus-mediated cell entry inhibition assay).

[4] = system: SIV pseudoviruses SIVpbj and SIV239; test: inhibition of SIV pseudoviruses; type: cell-based
Method: The supernatant was discarded from the wells. […] Inhibition rate (%) and IC50 value were calculated.
In order to further reflect the antiviral advantages of the potent lipopeptides of the present invention, their inhibitory activity against HIV-2 and SIV was determined in the example. The methods of antiviral activity assays used were described in the literatures published by the present inventors (see the References 13 and 30 listed in the Background Art). The molecular cloning plasmid pROD of the HIV-2 strain ROD (HIV-2ROD) was kindly provided by Professor Nuno Taveira from the University of Lisbon, Portugal, and the plasmids expressing the SIV strain SIVpbj (SIVPBJ) and SIV239 envelope proteins (pSIVpbj-Env and pSIV239, respectively) were kindly provided by Professor Xu Jianqing from the Fudan University. The preparation of the infectious ROD was the same as that of the infectious JRCSF in the above section 2.1, and the pseudoviruses SIVpbj and SIV239 were prepared by a method same as that described in the above Examples 2 and 3.

[5] = circular dichroism secondary structure analysis of the inhibitors themselves; type: physicochemical; settings: 10 μM, 20 μM and 40 μM in PBS
Method: as §1
For easy analysis, the α-helix content and the Tm value of the inhibitors were measured at concentrations of 10 μM, 20 μM, and 40 μM (PBS solution), respectively.

Compound | Tm value of the complex with N39 [1] [°C] | inhibitory activity against T-20 resistant strains (in words) [2] | IC50 [3] [nM] | inhibitory activity against different subtypes of HIV-1 as folds of T-20 [3] [folds] | inhibitory activity against SIV (in words) [4] | helix content of the complex with N39 [1] [%] | secondary structure of the inhibitor itself (in words) [5] | interaction / binding to N39 (in words) [1]
CCCCCCCCCCCCCCCCCC(=O)NCCCC[C@H](NC(=O)[C@H](CCC(=O)O)NC(=O)[C@H](CC(C)C)NC(=O)[C@H](CCCCN)NC(=O)[C@H](CCCCN)NC(=O)[C@H](CC(C)C)NC(=O)[C@H](CCC(=O)O)NC(=O)[C@H](CCC(=O)O)NC(=O)[C@H](CCC(=O)O)NC(=O)[C@H](CC(N)=O)NC(=O)[C@H](CCCCN)NC(=O)[C@H](CCCCN)NC(=O)[C@H](CCC(N)=O)NC(=O)[C@H](CCC(N)=O)NC(=O)[C@H](CCC(=O)O)NC(=O)[C@H](CCC(=O)O)NC(=O)[C@H](C)NC(=O)[C@H](CCCCN)NC(=O)[C@H](CCCCN)NC(=O)[C@H](CC(C)C)NC(=O)[C@H](CC(C)C)NC(=O)[C@H](CCC(=O)O)NC(=O)[C@H](CCC(=O)O)NC(=O)[C@@H](NC(C)=O)[C@@H](C)CC)C(N)=O [LP-90] (Ac-IEELLKKAEEQQKKNEEELKKLEK(Stearoyl)-NH2) | 71.1 | much lower active against T-20 resistant mutant strains than the LP-52 and LP-80 | 0.014 | 2958 | extremely potent inhibitory activity | – | – | –
CCCCCCCCCCCCCCCC(=O)NCCCC[C@H](NC(=O)[C@H](CCC(=O)O)NC(=O)[C@H](CC(C)C)NC(=O)[C@H](CCCCN)NC(=O)[C@H](CCCCN)NC(=O)[C@H](CC(C)C)NC(=O)[C@H](CCC(=O)O)NC(=O)[C@H](CCC(=O)O)NC(=O)[C@H](CCC(=O)O)NC(=O)[C@H](CC(N)=O)NC(=O)[C@H](CCCCN)NC(=O)[C@H](CCCCN)NC(=O)[C@H](CCC(N)=O)NC(=O)[C@H](CCC(N)=O)NC(=O)[C@H](CCC(=O)O)NC(=O)[C@H](CCC(=O)O)NC(=O)[C@H](C)NC(=O)[C@H](CCCCN)NC(=O)[C@H](CCCCN)NC(=O)[C@H](CC(C)C)NC(=O)[C@H](CC(C)C)NC(=O)[C@H](CCC(=O)O)NC(=O)[C@H](CCC(=O)O)NC(=O)[C@@H](NC(=O)[C@H](CCCCN)NC(=O)[C@H](CCC(N)=O)NC(=O)[C@H](CCC(=O)O)NC(=O)[C@H](Cc1c[nH]c2ccccc12)NC(C)=O)[C@@H](C)CC)C(N)=O [LP-52] (Ac-WEQKIEELLKKAEEQQKKNEEELKKLEK(Palmitoyl)-NH2) | 79.1 | thousands to tens of thousands of times better than that of the LP-40 | 0.016 | 2588 | extremely potent inhibitory activity | 63.8 | distinct helical structure | –
CCCCCCCCCCCCCCCC(=O)NCCCC[C@H](NC(=O)[C@H](CCC(=O)O)NC(=O)[C@H](CC(C)C)NC(=O)[C@H](CCCCN)NC(=O)[C@H](CCCCN)NC(=O)[C@H](CC(C)C)NC(=O)[C@H](CCC(=O)O)NC(=O)[C@H](CCC(=O)O)NC(=O)[C@H](CCC(=O)O)NC(=O)[C@H](CC(N)=O)NC(=O)[C@H](CCCCN)NC(=O)[C@H](CCCCN)NC(=O)[C@H](CCC(N)=O)NC(=O)[C@H](CCC(N)=O)NC(=O)[C@H](CCC(=O)O)NC(=O)[C@H](CCC(=O)O)NC(=O)[C@H](C)NC(=O)[C@H](CCCCN)NC(=O)[C@H](CCCCN)NC(=O)[C@H](CC(C)C)NC(=O)[C@H](CC(C)C)NC(=O)[C@H](CCC(=O)O)NC(=O)[C@H](CCC(=O)O)NC(=O)[C@@H](NC(=O)[C@H](CC(N)=O)NC(=O)[C@H](C)NC(=O)[C@H](CCC(=O)O)NC(=O)[C@H](CC(C)C)NC(C)=O)[C@@H](C)CC)C(N)=O [LP-51] (Ac-LEANIEELLKKAEEQQKKNEEELKKLEK(Palmitoyl)-NH2) | 72 | thousands to tens of thousands of times better than that of the LP-40 | 0.033 | 1255 | extremely potent inhibitory activity | – | distinct helical structure | –
CC[C@H](C)[C@H](NC(=O)[C@H](CCCCN)NC(=O)[C@H](CCC(N)=O)NC(=O)[C@H](CCC(=O)O)NC(=O)[C@H](Cc1c[nH]c2ccccc12)NC(C)=O)C(=O)N[C@@H](CCC(=O)O)C(=O)N[C@@H](CCC(=O)O)C(=O)N[C@@H](CC(C)C)C(=O)N[C@@H](CC(C)C)C(=O)N[C@@H](CCCCN)C(=O)N[C@@H](CCCCN)C(=O)N[C@@H](C)C(=O)N[C@@H](CCC(=O)O)C(=O)N[C@@H](CCC(=O)O)C(=O)N[C@@H](CCC(N)=O)C(=O)N[C@@H](CCC(N)=O)C(=O)N[C@@H](CCCCN)C(=O)N[C@@H](CCCCN)C(=O)N[C@@H](CC(N)=O)C(=O)N[C@@H](CCC(=O)O)C(=O)N[C@@H](CCC(=O)O)C(=O)N[C@@H](CCC(=O)O)C(=O)N[C@@H](CC(C)C)C(=O)N[C@@H](CCCCN)C(=O)N[C@@H](CCCCN)C(=O)N[C@@H](CC(C)C)C(=O)N[C@@H](CCC(=O)O)C(=O)N[C@@H](CCCCNC(=O)CCC(=O)Oc1c(C)c(C)c2c(c1C)CCC(C)(CCCC(C)CCCC(C)CCCC(C)C)O2)C(N)=O (stereo partly shown) [LP-85] (Ac-WEQKIEELLKKAEEQQKKNEEELKKLEK(X1)-NH2) | – | thousands to tens of thousands of times better than that of the LP-40 | – | 941 | extremely potent inhibitory activity | – | – | strong helical binding stability
